# Reference: the supplement of paper PMC10307832
# Experiments:
# Assay in all cases: relative viability (nuclei count vs DMSO), 5 days (fraction); higher = more cells survive
# VX-702 + Navitoclax = compound: NC(=O)c1ccc(N(C(N)=O)c2c(F)cccc2F)nc1-c1ccc(F)cc1F [VX-702] + CC1(C)CCC(c2ccc(Cl)cc2)=C(CN2CCN(c3ccc(C(=O)NS(=O)(=O)c4ccc(N[C@H](CCN5CCOCC5)CSc5ccccc5)c(S(=O)(=O)C(F)(F)F)c4)cc3)CC2)C1 [Navitoclax] (partner 0.5 µM)
# Procedure, shortened: (§1)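 Relative viability is defined as nuclei in treated wells over nuclei in vehicle wells. Duplicate plates were run and medians reported. Lung cancer cell lines in 1536-well plates were dosed by pin tool one day after seeding, with one drug or with a fixed anchor-drug dose plus five library-drug doses (not always all listed) in √10 steps, and nuclei were counted after 5 days.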
# VX-702 + Palbociclib = compound: NC(=O)c1ccc(N(C(N)=O)c2c(F)cccc2F)nc1-c1ccc(F)cc1F [VX-702] + CC(=O)c1c(C)c2cnc(Nc3ccc(N4CCNCC4)cn3)nc2n(C2CCCC2)c1=O [Palbociclib] (partner 0.5 µM)
# Procedure, shortened: as §1
# Dabrafenib + Tozasertib = compound: CC(C)(C)c1nc(-c2cccc(NS(=O)(=O)c3c(F)cccc3F)c2F)c(-c2ccnc(N)n2)s1 [Dabrafenib] + Cc1cc(Nc2cc(N3CCN(C)CC3)nc(Sc3ccc(NC(=O)C4CC4)cc3)n2)n[nH]1 [Tozasertib] (partner 0.1 µM)
# Procedure, shortened: as §1
# VX-702 + Linsitinib = compound: NC(=O)c1ccc(N(C(N)=O)c2c(F)cccc2F)nc1-c1ccc(F)cc1F [VX-702] + C[C@]1(O)C[C@@H](c2nc(-c3ccc4ccc(-c5ccccc5)nc4c3)c3c(N)nccn32)C1 [Linsitinib] (partner 1 µM)
# Procedure, shortened: as §1
Cell Line,relative viability (VX-702 + Navitoclax; first compound 0.02 µM),relative viability (VX-702 + Navitoclax; first compound 0.2 µM),relative viability (VX-702 + Navitoclax; first compound 0.6325 µM),relative viability (VX-702 + Navitoclax; first compound 2 µM),relative viability (VX-702 + Palbociclib; first compound 0.02 µM),relative viability (VX-702 + Palbociclib; first compound 0.2 µM),relative viability (VX-702 + Palbociclib; first compound 0.6325 µM),relative viability (VX-702 + Palbociclib; first compound 2 µM),relative viability (Dabrafenib + Tozasertib; first compound 0.009487 µM),relative viability (Dabrafenib + Tozasertib; first compound 0.09487 µM),relative viability (Dabrafenib + Tozasertib; first compound 0.3 µM),relative viability (VX-702 + Linsitinib; first compound 0.02 µM),relative viability (VX-702 + Linsitinib; first compound 0.2 µM),relative viability (VX-702 + Linsitinib; first compound 0.6325 µM),relative viability (VX-702 + Linsitinib; first compound 2 µM),relative viability (Dabrafenib + Tozasertib; first compound 0.03 µM),relative viability (Dabrafenib + Tozasertib; first compound 0.003 µM)
BEN,0.0513,0.104,0.0606,0.0662,0.51,0.467,0.413,0.514,0.563,0.412,0.501,0.828,0.798,0.967,0.852,,
NCI-H2228,1.29,0.973,0.886,0.952,0.604,0.763,0.676,1.07,0.246,0.236,0.244,0.724,0.671,0.685,0.761,0.248,
HCC-827,1.01,0.988,0.891,0.939,0.452,0.462,0.446,0.316,0.457,,0.377,0.931,0.927,0.953,0.71,0.383,0.426
H3255,0.508,0.446,0.501,0.557,0.304,0.317,0.318,0.315,0.675,0.609,0.629,0.941,0.856,0.866,0.929,0.721,0.507
NCI-H838,1.25,1.13,1.19,1.36,0.225,0.214,0.198,0.227,0.34,0.255,0.258,1.01,0.959,0.977,1.2,0.239,0.29
NCI-H1993,0.805,0.874,0.896,0.835,0.655,0.696,0.69,0.745,0.586,0.571,0.606,0.712,0.718,0.745,0.8,0.504,0.484
SK-MES-1,1.24,1.12,1.22,1.44,0.334,0.312,0.293,0.314,0.874,0.811,0.565,1.06,0.997,1.04,1.1,0.861,0.863
LU99A,0.857,0.878,0.813,0.698,0.407,0.387,0.389,0.34,0.287,0.277,0.306,0.511,0.517,0.466,0.515,0.255,0.258
NCI-H2347,0.887,0.712,0.756,0.792,0.455,0.473,0.466,0.476,0.548,0.621,0.496,0.968,0.977,0.896,0.986,0.344,
NCI-H1437,1.07,1.08,1.23,1.29,0.308,0.318,0.319,0.318,0.385,0.409,0.416,1.1,1.02,1.09,1.3,0.412,0.496
CAL-12T,1.22,1.18,1.3,1.35,0.427,0.507,0.496,0.347,0.424,0.328,0.349,0.815,0.898,0.722,0.881,0.423,0.377
NCI-H1651,0.933,0.96,0.982,1.27,0.503,0.494,0.502,0.56,0.763,0.668,0.679,0.876,1.09,0.967,1,0.57,0.741
RERF-LC-KJ,1.18,1.1,0.83,0.869,1,1.57,1.14,1.19,0.593,0.456,0.591,0.956,0.883,0.876,0.966,0.581,0.484
EKVX,0.96,0.932,0.882,0.986,0.355,0.38,0.343,0.301,0.406,0.337,0.457,0.946,1.01,1.01,0.988,0.407,0.475
EMC-BAC-2,1.19,1.13,1.18,1.24,0.5,0.489,0.501,0.481,0.284,0.243,0.267,0.83,0.796,0.816,0.892,0.23,0.286
PC-3 [JPC-3],0.756,0.846,0.844,0.853,0.568,0.517,0.566,0.553,0.957,0.827,0.929,0.966,1.01,1.03,1.05,0.941,0.934
HCC-78,0.673,0.772,0.806,0.852,0.493,0.486,0.513,0.487,0.485,0.387,0.54,0.448,0.508,0.427,0.492,0.42,
NCI-H647,1.1,1.02,1.02,1.23,0.349,0.373,0.378,0.495,0.292,0.298,0.434,1.21,0.941,1.18,1.4,0.27,0.388
NCI-H1666,0.883,0.884,0.843,1.02,0.683,0.69,0.595,0.526,0.637,0.672,0.672,0.878,0.86,0.747,0.855,0.678,0.562
